The values below come from patent US12421220B2, “Bicyclic-substituted glutarimide cereblon binders” (C4 THERAPEUTICS, INC., priority 2022, dated 2025).

Molecules are shown by their SMILES.

The target in assay [1] is T1, BRD4 (Homo sapiens, UniProt O60885).
T1 construct: endogenously expressing BRD4 with HiBiT fusion tag via CRISPR; endogenous in cells; host or cells: 293T.92 (BRD4-HiBiT) cells, a CRISPR knock-in made from 293T
The experiment in a line: BRD4 HiBiT degradation assay in 293T.92 (BRD4-HiBiT) cells. Particulars: 293T.92 cells, 24.0 hours. Type of assay: cell-based. The source says:
Example 3: BRD4 HiBiT Method
Dulbecco's modified Eagle medium (DMEM) without phenol red and fetal bovine serum (FBS) were purchased from Gibco (Grand Island, NY, USA). Nano-Glo® HiBiT Lytic Assay System was purchased from Promega (Madison, WI, USA). 293T.92 (BRD4-HiBiT) cell line, endogenously expressing BRD4 with HiBiT fusion tag via CRISPR was made internally from the 293T human cell line acquired from American Type Culture Collection (Rockville, MD, USA). Cell culture flasks and 384-well microplates were acquired from VWR (Radnor, PA, USA) or Corning (Corning, NY, USA).
BRD4 degradation was determined based on quantification of luminescent signal using Nano-Glo® HiBiT Lytic Assay kit. Test compounds were added to the 384-well plate from a top concentration of […] with 11 points, half log titration in duplicates. 293T.92 cells were added into 384-well plates at a cell density of 15000 cells per well. The plates were kept at 37° C. with 5% CO2 for […]. The cells treated in the absence of the test compound were the negative control and the cells without Nano-Glo® HiBiT Lytic reagent were the positive control. After 24-hour incubation, Nano-Glo® HiBiT Lytic Assay reagents were added to the cells. Luminescence was acquired on EnVision™ Multilabel Reader (PerkinElmer, Santa Clara, CA, USA).
In general terms: HiBiT is a short tag that completes a luciferase, so light tracks the accessible tagged protein.

Assay [2] concerns the target T2, CRBN-DDB1 (CRBN_DDB1.3) (Homo sapiens, UniProt Q96SW2). Put plainly: Fluorescence polarization (FP) binding assay, CRBN_DDB1.3 construct. As to conditions: benzomorpholine binders. As for the experimental part: Example 2: Fluorescence Polarization (FP) Assay for Screening Compound Ligand Binders of CRBN-DDB1
Measuring compound ligand binding to CRBN-DDB 1 was carried out using an established sensitive and quantitative in vitro fluorescence polarization (FP) based binding assay. (See, I. J. Enyedy et al, J. Med. Chem., 44: […] [2001]). Compounds were dispensed from serially diluted DMSO stock into black 384-well compatible fluorescence polarization plates using an Echo acoustic dispenser. Compound binding to CRBN-DDB 1 was measured by displacement of an established CRBN binding ligand conjugated to an Alexa Fluor® dye (probe). A […] mixture containing 10nM CRBN-DDB1 and 5 nM probe in 50 mM Hepes, pH 7.4, 200 mM NaCl, 1% DMSO, 0.1% BSA and 0.05% o pluronic acid-127 acid was added to wells containing compound and incubated at room temperature for 60 min. Matching control wells excluding CRBN-DDB 1 were used to correct for background fluorescence. Plates were read on an Envision plate reader with appropriate FP filter sets. The corrected S (perpendicular) and P (parallel) values were used to calculate fluorescence polarization (FP) with the following equation: FP=1000*(S−G*P)/(S+G*P).
The fractional amount of bound probe (FB) to CRBN-DDB 1 as a function of compound concentration was fitted according to Wang; FEBS Letters 360, (1995), 111-114 to obtain fits for parameter offsets and binding constant (KA) of competitor compound.
A general note: In fluorescence polarisation assays a small probe gives low polarisation when free and higher when bound to something large.

In assay [3] the target is T2, CRBN-DDB1 (CRBN_DDB1.3). The assay is described as above. Particulars: 0.05% PA (no BSA); benzomorpholine binders; read-out: FP CRBN_DDB1.3 0.05% PA Ka.

T2 sequence (Q96SW2 318-426 limits assumed): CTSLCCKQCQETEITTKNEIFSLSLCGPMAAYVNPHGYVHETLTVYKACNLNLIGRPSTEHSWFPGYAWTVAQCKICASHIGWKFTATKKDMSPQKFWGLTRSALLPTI

One may read the DC50 as the concentration at which degradation of the target reaches its halfway point. Low values mean a more potent degrader, high ones a less potent degrader. A word on the Emax: it is the maximal effect, on the per cent scale that the assay sets. With `COC(=O)N1c2ccc3c(nc(Cc4ccccc4)n3[C@H]3CCC[C@H](C(=O)N4CCC(c5ccc6c(c5)OCCN6C5CCC(=O)NC5=O)CC4)C3)c2CC[C@@H]1C` (stereo partly drawn) [Compound 32-14, methyl (7S)-2-benzyl-7-methyl-3-[(1S,3S)-3-[4-[4-(2,6-dioxo-3-piperidyl)-2,3-dihydro-1,4-benzoxazin-7-yl]piperidine-i-carbonyl]cyclohexyl]-8,9-dihydro-7H-imidazo[4,5-f]quinoline-6-carboxylate], in assay [1], the DC50 was under 1 µM and the Emax was under 30%.

As for `CC(C)(C)OC(=O)N1CCC(c2cccc3c2OCCN3C2CCC(=O)NC2=O)CC1` (stereo not shown) [Compound 9-6, tert-butyl 4-[4-(2,6-dioxo-3-piperidyl)-2,3-dihydro-1,4-benzoxazin-8-yl]piperidine-1-carboxylate], the “FP CRBN_DDB1.3 0.05% PA, 0.1% BSA Ka nM” value in assay [2] is recorded as “** (≤100 μM is **)”. In addition, in assay [3], the Kd is at most 100 µM.
